Results taken from patent publication US9359298B2, “Cajanine structure analogous compound, preparation method and use” (INSTITUTE OF MEDICINAL BIOTECHNOLOGY, CHINESE ACADEMY OF …, priority 2011, dated 2016).
Converted amounts (≈) assume the structure as drawn.

Assays:
Type in all cases: cell-based
[1] = test system: Influenza A virus (hanfang359/95); test: Determination of anti-influenza virus activity (CPE in MDCK cells); details: for IC50: Influenza A virus, MDCK, 36 h
[2] = test system: Coxsackie virus B6; test: Coxsackie virus activity assay (CPE in Vero cells); details: for IC50: Vero, read-out: COX-B6 IC50, Vero cells, about 100TCID50, CPE, Reed-Muench
[3] = test system: HCV; test: Anti-hepatitis C virus (HCV) activity assay (HCV RNA in Huh7.5 cells); details: for EC50: Hepatitis C virus, Huh7.5, 72 h, read-out: HCV EC50; for anti-HCV viral activity: statement in words
Method: Inoculate Huh7.5 cells into 96-well plates to a density of 3×10^4 cells/cm^2, culture for 24h, infect the cells with 45 IU/cell HCV supernatant, meanwhile, add drug solutions or solvent control for treatment.

[4] = test system: HIV-1 III B virus; test: Anti-HIV activity assay (P24 antigen in MT-4 cells); details: for IC50: Human immunodeficiency virus 1, MT4, 96 h, read-out: HIV IC50; for anti-HIV viral activity: statement in words
[5] = test system: PC12 cells; test: Neuroprotective activity assay, serum-deprived injury to PC12 cells (MTT); details: 10 μM test compound, 48 h, Control 100.0 ± 9.2, Model 69.3 ± 4.1; for viability at 10 µM: Rattus norvegicus, PC-12, 48 h, read-out: serum-deprived (surviving PC12 cells, MTT 570 nm)
Method: (§1) Discard the original culture media from confluent monolayers of PC12 cells (simulated neuronal cells), add DMEM complete medium with 5% FBS, 5% horse serum gently beat upon the cells with a pipette to completely disperse them, inoculate 100 μl cell suspension at a density of […] per well to 96 hole plates treated with poly-lysine (0.1 mg/ml) in advance, culture for 24h. Divide the experimenting cells into control group, model group and dosing groups. Add complete medium to the control group. Model groups includes rotenone group and serum-deprived group, add rotenone to the corresponding modules with a final concentration of 4 μM rotenone to take effect on the cells for 48 h, add serum-deprived groups with serum-free DMEM medium to take effect on the cells for 48 h. Dosing groups also includes two groups, one using rotenone module as model, another using serum-deprived module as model, and both add in 10 μM test compounds during modeling. 48h later, add 10 μl 5 mg/ml MTT, subsequently discard the supernatant 4h later and add in 150 μl DMSO, measure 570 nm absorbance to represent the numbers of surviving cells.

[6] = test system: PC12 cells; test: Neuroprotective activity assay, rotenone injury to PC12 cells (MTT); details: 10 μM test compound, 4 μM rotenone, 48 h, Control 100.0 ± 8.9, Model 73.2 ± 7.8; for viability at 10 µM: Rattus norvegicus, PC-12, 48 h, read-out: rotenone (surviving PC12 cells, MTT 570 nm)
Method: as §1

[7] = Huh7.5 cells, 72 h, HCV RNA by RT-PCR, Reed-Muench
[8] = MT-4 cells, HIV-1 III B 100TCID50, 96 h, P24 antigen

| Compound | Influenza A virus (hanfang359/95) IC50 [1] [µg/mL] | COX-B6 IC50 [2] [µg/mL] | HCV EC50 [3, 7] [µg/mL] | HIV IC50 [4, 8] [µg/mL] | serum-deprived (surviving PC12 cells, MTT 570 nm) [5] | rotenone (surviving PC12 cells, MTT 570 nm) [6] | IC50 [1] [µg/mL] | IC50 [2] [µg/mL] | EC50 [3, 7] [µg/mL] | anti-HCV viral activity [3] | IC50 [4, 8] [µg/mL] | anti-HIV viral activity [4] | viability at 10 µM [5] [%] | viability at 10 µM [6] [%] | anti-influenza virus activities compared with the lead compound cajanine ([1]; statement in words) |
| --- | --- | --- | --- | --- | --- | --- | --- | --- | --- | --- | --- | --- | --- | --- | --- |
| 2-isopentenyl-3-methoxy-5-[4′-methylcyclohexylene methyl]phenol [Compound 10n] | >0.69 | >2.05 | 0.89 | 1.43 | 79.6 ± 2.8 | 78.6 ± 3.2 |  |  |  |  |  |  |  |  |  |
| COc1cc(/C=C/c2cc(O)cc(O)n2)c(C(=O)O)c(O)c1CC=C(C)C [1a′, 2-hydroxy-3-isopentenyl-4-methoxy-6-[(E)-2-(4,6-dihydroxy-2-yl)ethenyl]benzoic acid] |  |  |  |  |  |  | 0.19 (≈ 0.512 µM) | 0.36 (≈ 0.969 µM) | 0.94 (≈ 2.53 µM) | stronger anti-HIV, HCV viral activities | 1.38 (≈ 3.72 µM) | stronger anti-HIV, HCV viral activities | 88.7 ± 4.9 | 87.2 ± 4.3 |  |
| COc1cccc(/C=C/c2cc(OC)c(CC=C(C)C)c(O)c2C(=O)O)n1 [1b′, 2-hydroxy-3-isopentenyl-4-methoxy-6-[(E)-2-(6-methoxypyrid-2-yl)ethenyl]benzoic acid] |  |  |  |  |  |  | 4.62 (≈ 12.5 µM) | 5.98 (≈ 16.2 µM) | 0.88 (≈ 2.38 µM) | stronger anti-HIV, HCV viral activities | 3.19 (≈ 8.64 µM) | stronger anti-HIV, HCV viral activities | 88.9 ± 1.9 | 87.2 ± 6.31 |  |
| COc1cc(/C=C/c2cccc(O)n2)c(C(=O)O)c(O)c1CC=C(C)C [1c′, 2-hydroxy-3-isopentenyl-4-methoxy-6-[(E)-2-(6-hydroxypyrid-2-yl)ethenyl]benzoic acid] |  |  |  |  |  |  | 1.34 (≈ 3.77 µM) | 2.56 (≈ 7.2 µM) | 1.3 (≈ 3.66 µM) |  | 1.61 (≈ 4.53 µM) |  | 85.9 ± 4.7 | 85.6 ± 3.8 |  |
| C=CCc1c(OC)cc(/C=C/c2ccccc2)c(C(=O)OC)c1O [8a′, methyl 2-hydroxy-3-allyl-4-methoxy-6-[(E)-styryl]benzoate] |  |  |  |  |  |  | 0.15 (≈ 0.462 µM) | 1.64 (≈ 5.06 µM) |  |  |  |  | 87.9 ± 2.5 | 88 ± 6.9 |  |
| COc1cc(/C=C/c2cc(O)ccn2)cc(O)c1CC=C(C)C [10a′, 2-isopentenyl-3-methoxy-5-[(E)-2-(4-hydroxypyrid-2-yl)ethenyl]phenol] |  |  |  |  |  |  | 0.17 (≈ 0.546 µM) | 0.41 (≈ 1.32 µM) | 1.41 (≈ 4.53 µM) |  | 1.33 (≈ 4.27 µM) |  | 86.3 ± 1.2 | 89.2 ± 3.2 |  |
| COc1cc(/C=C/c2cc(O)c(CC=C(C)C)c(OC)c2)nc(OC)c1 [10d′] |  |  |  |  |  |  | 0.14 (≈ 0.394 µM) | 0.35 (≈ 0.985 µM) | 0.65 (≈ 1.83 µM) |  | 1.3 (≈ 3.66 µM) |  | 91.2 ± 3.2 | 94.3 ± 5.4 |  |
| COc1cc(/C=C/c2cc(O)cc(O)n2)cc(O)c1CC=C(C)C [10e′] |  |  |  |  |  |  | 0.21 (≈ 0.641 µM) | 1.21 (≈ 3.7 µM) | 1.87 (≈ 5.71 µM) |  | 0.71 (≈ 2.17 µM) |  | 87.9 ± 4.7 | 88.9 ± 2.8 |  |
| COc1cccc(/C=C/c2cc(O)c(CC=C(C)C)c(OC)c2)n1 [10f′] |  |  |  |  |  |  | 0.23 (≈ 0.707 µM) | 2.31 (≈ 7.1 µM) | 0.61 (≈ 1.87 µM) |  | 1.04 (≈ 3.2 µM) |  | 80.5 ± 3.2 | 79.1 ± 5.6 |  |
| COc1cc(/C=C/c2cccc(O)n2)cc(O)c1CC=C(C)C [10g′] |  |  |  |  |  |  | 0.87 (≈ 2.79 µM) | 0.12 (≈ 0.385 µM) | 2.3 (≈ 7.39 µM) |  | 3.93 (≈ 12.6 µM) |  | 71 ± 5.2 | 63.5 ± 2.1 |  |
| C=CCc1c(O)cc(/C=C/c2ccccc2)cc1OC [10h′, 2-allyl-3-methoxy-5-[(E)-styryl]phenol] |  |  |  |  |  |  | 0.09 (≈ 0.338 µM) | 0.54 (≈ 2.03 µM) |  |  |  |  | 87.6 ± 4.3 | 86.7 ± 4.5 |  |
| COc1cc(/C=C/c2ccc(F)cc2)c(C(=O)O)c(O)c1CC=C(C)C [Compound 1a, 2-hydroxy-3-isopentenyl-4-methoxy-6-[(E)-4-fluorostyryl]benzoic acid] |  |  |  |  |  |  | > 0.69 | > 0.69 | 1.04 (≈ 2.92 µM) | stronger anti-HIV, HCV viral activities | 1.01 (≈ 2.83 µM) | stronger anti-HIV, HCV viral activities | 16.7 ± 0.6 | 62.4 ± 3.8 |  |
| COc1cc(/C=C/c2ccccc2Cl)c(C(=O)O)c(O)c1CC=C(C)C [Compound 1b, 2-hydroxy-3-isopentenyl-4-methoxy-6-[(E)-2-chlorostyryl]benzoic acid] |  |  |  |  |  |  | > 18.5 | > 1.03 | 0.67 (≈ 1.8 µM) | stronger anti-HIV, HCV viral activities | 1.22 (≈ 3.27 µM) | stronger anti-HIV, HCV viral activities | 15.7 ± 0.3 | 68.2 ± 8 |  |
| COc1ccc(/C=C/c2cc(OC)c(CC=C(C)C)c(O)c2C(=O)O)cc1 [Compound 1c] |  |  |  |  |  |  | > 2.06 | 1.6 (≈ 4.34 µM) | 2.69 (≈ 7.3 µM) | stronger anti-HIV, HCV viral activities | 1.64 (≈ 4.45 µM) | stronger anti-HIV, HCV viral activities | 16.1 ± 0.7 | 77.2 ± 0.6 |  |
| COc1cc(/C=C/c2ccccc2C)c(C(=O)O)c(O)c1CC=C(C)C [Compound 1e, 2-hydroxy-3-isopentenyl-4-methoxy-6-[(E)-2-methylstyryl]benzoic acid] |  |  |  |  |  |  | > 2.47 | 3.26 (≈ 9.25 µM) | 0.47 (≈ 1.33 µM) | stronger anti-HIV, HCV viral activities | 2.7 (≈ 7.66 µM) | stronger anti-HIV, HCV viral activities | 30.6 ± 12 | 55.6 ± 9.9 |  |
| COc1cc(/C=C/c2ccccc2)cc(OC(=O)C(=O)O)c1CC=C(C)C [Compound 31c, 2-isopentenyl-3-carboxyformyloxy-5-[(E)-styryl]anisole] |  |  |  |  |  |  | 0.08 (≈ 0.218 µM) | 0.67 (≈ 1.83 µM) | 0.77 (≈ 2.1 µM) | stronger anti-HIV, HCV viral activities | 0.29 (≈ 0.791 µM) | stronger anti-HIV, HCV viral activities |  |  | significantly stronger than the lead compound cajanine |
